{"source": "patent US20050176091A1", "about": "“Process for producing kiss-1 peptide” (priority 2002, published 2005)", "tested_on": "intracellular Ca ion concentration", "assay": "Biological activity assay: intracellular Ca ion concentration-increasing activity (method of Example 3 of WO 99/33976)", "type": "cell-based", "details": "compared with a sample purified from human placenta extract", "note": "Where no end group is shown, it is not given here.", "data": [{"substance": "KiSS-1 peptide: Human KiSS-1 peptide (SEQ ID NO: 1) obtained in Example 2 by S-cyanylation and ammonolysis of a fused protein expressed in E. coli (GTSLSPPPESSGSRQQPGLSAPHSRQIPAPQGAVLVQREKDLPNYNWNSFGLRF-NH2)", "values": [{"measurement": "intracellular Ca ion concentration-increasing activity", "result": "equivalent to that of a sample purified from human placenta extract"}]}]}
